Columns and labels:
IGF-1R = biological target: T1, IGF-1R (Homo sapiens, UniProt P08069); test: kinase inhibitory activity test (ELISA), IGF-1R; type: biochemical; details: ATP 5 μM, 1 hour at 37° C.
T1 construct: purchased Millipore
Outline: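 Poly(Glu,Tyr)4:1-coated plates; kinase reacted 1 h at 37 °C with 5 μM ATP (final) in HEPES pH 7.4 buffer with Mg2+/Mn2+. Phosphotyrosine detected by PY99 and HRP anti-mouse IgG with OPD at 490 nm; IC50 from four-parameter fit.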

[1] = system: human epidermal carcinoma A431 cell line; test: SRB proliferation assay, A431 cells; type: cell-based; details: A-431, SRB, 72 h, read-out: IC50 A431
Outline: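 A431 cells in log phase are allowed to adhere for 24 h, then exposed to compound for 72 h in triplicate alongside DMSO controls. Cells are fixed with cold 10% TCA, stained with SRB, dye is solubilised in 10 mM Tris pH 10.5, and OD is read at 515 nm.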

EGFR^wt = biological target: T2, EGFR^wt (Homo sapiens, UniProt P00533); test: kinase inhibitory activity test (ELISA), EGFR^WT; type: biochemical; details: ATP 5 μM, 1 hour at 37° C.
T2 construct: purchased Millipore
Outline: (§1)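 ELISA on poly(Glu,Tyr)4:1-coated plates; kinase reaction with 5 μM ATP (final) in 50 mM HEPES pH 7.4, 50 mM MgCl2, 5 mM MnCl2, 0.2 mM Na3VO4, 1 mM DTT, 1 h at 37° C. Phosphotyrosine detected via PY99/HRP and OPD at 490 nm; IC50 by four-parameter fit.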

EGFR^T790M/L858R = biological target: T3, EGFR^T790M/L858R (Homo sapiens, UniProt P00533, L858R/T790M); test: kinase inhibitory activity test (ELISA), EGFR^T790M/L858R; type: biochemical; details: ELISA, ATP 5 μM, 1 hour at 37° C.
T3 construct: purchased Millipore
Outline: as §1

[2] = system: human non-small cell lung cancer NCI-H1975 cell line; test: SRB proliferation assay, NCI-H1975 cells; type: cell-based; details: NCI-H1975, SRB, 72 h, read-out: IC50 NCI-H1975
Outline: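 NCI-H1975 cells in log phase were allowed to adhere for 24 h, then treated with compound in triplicate for 72 h. Cells were TCA-fixed and SRB-stained, with OD read at 515 nm; IC50 derived from growth inhibition versus DMSO control.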

T1 sequence (P08069 31-1367): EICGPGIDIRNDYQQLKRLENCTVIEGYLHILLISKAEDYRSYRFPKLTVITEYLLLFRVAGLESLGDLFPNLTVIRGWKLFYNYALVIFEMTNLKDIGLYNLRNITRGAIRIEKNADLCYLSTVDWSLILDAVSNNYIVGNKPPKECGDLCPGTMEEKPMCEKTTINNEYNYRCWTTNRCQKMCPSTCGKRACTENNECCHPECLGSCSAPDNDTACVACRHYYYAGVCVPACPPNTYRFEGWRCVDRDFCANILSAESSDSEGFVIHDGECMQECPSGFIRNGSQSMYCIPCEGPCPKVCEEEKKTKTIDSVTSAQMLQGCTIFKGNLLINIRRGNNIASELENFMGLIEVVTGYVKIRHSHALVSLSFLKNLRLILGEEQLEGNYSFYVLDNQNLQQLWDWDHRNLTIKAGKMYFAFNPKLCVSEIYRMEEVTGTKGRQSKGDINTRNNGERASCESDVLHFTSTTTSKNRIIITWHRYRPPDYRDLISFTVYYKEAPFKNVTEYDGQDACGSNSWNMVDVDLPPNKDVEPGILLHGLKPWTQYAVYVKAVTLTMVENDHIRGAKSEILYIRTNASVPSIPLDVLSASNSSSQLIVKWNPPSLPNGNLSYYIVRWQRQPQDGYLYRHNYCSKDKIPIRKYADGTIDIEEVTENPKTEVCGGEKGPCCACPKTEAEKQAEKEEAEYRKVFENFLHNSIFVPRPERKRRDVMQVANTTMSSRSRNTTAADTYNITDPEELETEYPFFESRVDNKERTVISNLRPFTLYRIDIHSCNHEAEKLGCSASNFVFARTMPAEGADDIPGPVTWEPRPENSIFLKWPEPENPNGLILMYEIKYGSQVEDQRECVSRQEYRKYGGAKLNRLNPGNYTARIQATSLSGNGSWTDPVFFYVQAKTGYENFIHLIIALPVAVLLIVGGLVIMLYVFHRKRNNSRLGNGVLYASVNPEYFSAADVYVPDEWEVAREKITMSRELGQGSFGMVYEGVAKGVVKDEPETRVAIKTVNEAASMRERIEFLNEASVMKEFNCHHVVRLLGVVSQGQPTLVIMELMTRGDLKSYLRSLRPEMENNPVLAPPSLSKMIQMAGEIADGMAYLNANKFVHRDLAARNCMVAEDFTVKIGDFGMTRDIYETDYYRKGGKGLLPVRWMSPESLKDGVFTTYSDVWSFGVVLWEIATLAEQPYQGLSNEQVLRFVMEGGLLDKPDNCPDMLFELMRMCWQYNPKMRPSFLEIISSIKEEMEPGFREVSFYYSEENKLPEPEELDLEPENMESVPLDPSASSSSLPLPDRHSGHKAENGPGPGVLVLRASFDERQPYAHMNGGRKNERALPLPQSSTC
T3 sequence (P00533 25-1210 T790M/L858R): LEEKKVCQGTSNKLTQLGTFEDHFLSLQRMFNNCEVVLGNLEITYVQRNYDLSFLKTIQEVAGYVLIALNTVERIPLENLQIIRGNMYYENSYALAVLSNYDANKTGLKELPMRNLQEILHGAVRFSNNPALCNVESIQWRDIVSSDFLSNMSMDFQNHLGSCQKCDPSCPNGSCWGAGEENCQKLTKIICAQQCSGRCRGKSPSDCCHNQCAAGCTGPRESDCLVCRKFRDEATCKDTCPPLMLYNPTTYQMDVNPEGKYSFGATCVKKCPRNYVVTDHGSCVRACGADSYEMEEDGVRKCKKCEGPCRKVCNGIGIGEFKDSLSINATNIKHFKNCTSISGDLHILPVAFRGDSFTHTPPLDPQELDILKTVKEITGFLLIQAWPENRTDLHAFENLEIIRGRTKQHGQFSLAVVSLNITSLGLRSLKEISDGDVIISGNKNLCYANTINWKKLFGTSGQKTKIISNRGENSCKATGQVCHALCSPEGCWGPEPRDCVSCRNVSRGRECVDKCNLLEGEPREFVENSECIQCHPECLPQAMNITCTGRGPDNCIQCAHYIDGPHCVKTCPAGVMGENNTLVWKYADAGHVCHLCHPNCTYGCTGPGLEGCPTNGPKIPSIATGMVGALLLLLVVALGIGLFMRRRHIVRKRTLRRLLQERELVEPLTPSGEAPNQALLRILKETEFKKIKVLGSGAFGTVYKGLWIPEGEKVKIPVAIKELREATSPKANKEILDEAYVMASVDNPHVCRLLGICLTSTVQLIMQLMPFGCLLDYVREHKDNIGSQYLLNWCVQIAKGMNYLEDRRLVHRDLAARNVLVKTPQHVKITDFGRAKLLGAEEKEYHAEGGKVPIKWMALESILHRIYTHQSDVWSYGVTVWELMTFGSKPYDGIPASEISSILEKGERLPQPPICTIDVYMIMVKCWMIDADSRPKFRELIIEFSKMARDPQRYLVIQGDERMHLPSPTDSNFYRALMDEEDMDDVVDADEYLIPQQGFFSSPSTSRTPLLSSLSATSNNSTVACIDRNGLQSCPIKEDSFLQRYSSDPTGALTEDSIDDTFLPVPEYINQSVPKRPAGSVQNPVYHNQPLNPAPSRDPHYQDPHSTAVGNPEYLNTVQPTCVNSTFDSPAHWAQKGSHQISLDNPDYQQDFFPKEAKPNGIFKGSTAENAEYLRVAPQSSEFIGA
T2 sequence (P00533 25-1210): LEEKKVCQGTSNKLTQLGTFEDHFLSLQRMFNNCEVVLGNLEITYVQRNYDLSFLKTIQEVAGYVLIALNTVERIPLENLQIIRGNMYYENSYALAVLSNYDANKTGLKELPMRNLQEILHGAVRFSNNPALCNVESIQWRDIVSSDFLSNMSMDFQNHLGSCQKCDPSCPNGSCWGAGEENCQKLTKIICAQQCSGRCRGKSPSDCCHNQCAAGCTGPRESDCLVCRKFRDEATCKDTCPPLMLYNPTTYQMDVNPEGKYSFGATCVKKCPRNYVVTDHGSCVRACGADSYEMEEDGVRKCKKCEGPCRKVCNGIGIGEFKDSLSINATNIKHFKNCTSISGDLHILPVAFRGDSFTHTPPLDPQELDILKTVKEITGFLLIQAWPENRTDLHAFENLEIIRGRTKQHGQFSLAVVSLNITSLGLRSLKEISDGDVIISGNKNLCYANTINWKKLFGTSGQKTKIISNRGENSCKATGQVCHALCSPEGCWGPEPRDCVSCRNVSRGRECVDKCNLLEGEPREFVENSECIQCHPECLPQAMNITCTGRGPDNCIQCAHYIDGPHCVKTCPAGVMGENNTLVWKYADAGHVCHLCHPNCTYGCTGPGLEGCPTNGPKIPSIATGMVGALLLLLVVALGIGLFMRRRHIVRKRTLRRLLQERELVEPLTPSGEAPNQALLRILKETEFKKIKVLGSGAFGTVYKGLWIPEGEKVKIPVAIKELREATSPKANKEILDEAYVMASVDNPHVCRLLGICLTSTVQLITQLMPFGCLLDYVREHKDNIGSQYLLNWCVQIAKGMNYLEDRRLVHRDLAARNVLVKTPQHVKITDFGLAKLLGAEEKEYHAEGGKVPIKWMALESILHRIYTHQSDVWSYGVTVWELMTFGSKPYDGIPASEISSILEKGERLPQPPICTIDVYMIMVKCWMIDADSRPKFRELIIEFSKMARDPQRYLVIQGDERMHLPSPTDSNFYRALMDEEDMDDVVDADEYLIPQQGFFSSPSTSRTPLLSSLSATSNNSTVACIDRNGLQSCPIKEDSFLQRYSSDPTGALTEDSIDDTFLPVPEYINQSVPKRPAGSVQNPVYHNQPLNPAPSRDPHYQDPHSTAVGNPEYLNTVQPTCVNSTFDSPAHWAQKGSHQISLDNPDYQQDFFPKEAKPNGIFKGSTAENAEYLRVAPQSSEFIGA

IC50 (IGF-1R)	IC50 [1]	IC50 (EGFR^wt)	IC50 (EGFR^T790M/L858R)	IC50 [2]	SMILES
0.157 µM	4.66 µM	0.47 µM	0.0425 µM	1.1 µM	Cc1ccc(Nc2ncc(Br)c(Nc3ccc4ccccc4c3)n2)cc1NC(=O)/C=C/CN(C)C [CCB145348, (E)-N-((5-((5-bromo-4-((naphthalen-2-yl)amino))pyrimidin-2-yl)amino)-2-methylphenyl)-4-(dimethylamino)-2-butenamide]
0.163 µM	6.26 µM	1.46 µM	0.0256 µM	1.18 µM	CCOc1ccc(NC(=O)/C=C/CN(C)C)cc1Nc1ncc(Cl)c(Nc2ccc3ccccc3c2)n1 [CCB145373, (E)-N-((3-((5-chloro-4-((naphthalen-2-yl)amino))pyrimidin-2-yl)amino)-4-ethoxyphenyl)-4-(dimethylamino)-2-butenamide]
0.0864 µM	4.47 µM	2.83 µM	0.0113 µM	2.82 µM	CCOc1ccc(NC(=O)/C=C/CN(C)C)cc1Nc1ncc(Br)c(Nc2ccc3ccccc3c2)n1 [CCB145374, (E)-N-((3-((5-bromo-4-((naphthalen-2-yl)amino))pyrimidin-2-yl)amino)-4-ethoxyphenyl)-4-(dimethylamino)-2-butenamide]
0.195 µM	1.67 µM	1.06 µM	0.0067 µM	0.429 µM	COc1cc(F)c(NC(=O)/C=C/CN(C)C)cc1Nc1ncc(Cl)c(Nc2ccc3ccccc3c2)n1 [CCB145380, (E)-N-((5-((5-chloro-4-((naphthalen-2-yl)amino))pyrimidin-2-yl)amino)-2-fluoro-4-methoxyphenyl)-4-(dimethylamino)-2-butenamide]
0.102 µM	1.79 µM	3.54 µM	0.0075 µM	0.508 µM	COc1cc(F)c(NC(=O)/C=C/CN(C)C)cc1Nc1ncc(Br)c(Nc2ccc3ccccc3c2)n1 [CCB145381, (E)-N-((5-((5-bromo-4-((naphthalen-2-yl)amino))pyrimidin-2-yl)amino)-2-fluoro-4-methoxyphenyl)-4-(dimethylamino)-2-butenamide]
0.272 µM	0.671 µM	2.68 µM	0.266 µM	1.97 µM	CC(C)Oc1ccc(NC(=O)/C=C/CN(C)C)cc1Nc1ncc(Cl)c(Nc2ccc3ccccc3c2)n1 [CCB145384, (E)-N-((3-((5-chloro-4-((naphthalen-2-yl)amino))pyrimidin-2-yl)amino)-4-isopropoxyphenyl)-4-(dimethylamino)-2-butenamide]
0.316 µM	7.58 µM	3.62 µM	0.177 µM	5.74 µM	CC(C)Oc1ccc(NC(=O)/C=C/CN(C)C)cc1Nc1ncc(Br)c(Nc2ccc3ccccc3c2)n1 [CCB145385, (E)-N-((3-((5-bromo-4-((naphthalen-2-yl)amino))pyrimidin-2-yl)amino)-4-isopropoxyphenyl)-4-(dimethylamino)-2-butenamide]

More lines, now with the values behind:

SMILES	IC50 (IGF-1R)	IC50 [1]	IC50 (EGFR^wt)	IC50 (EGFR^T790M/L858R)	IC50 [2]
CN(C)C/C=C/C(=O)Nc1ccc(F)c(Nc2ncc(Br)c(Nc3ccc4ccccc4c3)n2)c1 [CCB145330, (E)-N-((3-((5-bromo-4-((naphthalen-2-yl)amino))pyrimidin-2-yl)amino)-4-fluorophenyl)-4-(dimethylamino)-2-butenamide]	0.146 µM	12.8 µM	4.15 µM	0.0324 µM	0.948 µM
CN(C)C/C=C/C(=O)Nc1cccc(Nc2ncc(Cl)c(Nc3ccc4ccccc4c3)n2)c1 [CCB145333, (E)-N-((3-((5-chloro-4-((naphthalen-2-yl)amino))pyrimidin-2-yl)amino)phenyl)-4-(dimethylamino)-2-butenamide]	0.17 µM	6.22 µM	4.75 µM	0.0242 µM	0.632 µM
CN(C)C/C=C/C(=O)Nc1cccc(Nc2ncc(Br)c(Nc3ccc4ccccc4c3)n2)c1 [CCB145335, (E)-N-((3-((5-bromo-4-((naphthalen-2-yl)amino))pyrimidin-2-yl)amino)phenyl)-4-(dimethylamino)-2-butenamide]	0.0906 µM	2.59 µM	3.89 µM	0.0357 µM	2.48 µM
Cc1ccc(NC(=O)/C=C/CN(C)C)cc1Nc1ncc(Br)c(Nc2ccc3ccccc3c2)n1 [CCB145339, (E)-N-((3-((5-bromo-4-((naphthalen-2-yl)amino))pyrimidin-2-yl)amino)-4-methylphenyl)-4-(dimethylamino)-2-butenamide]	0.0483 µM	2.19 µM	4.48 µM	0.0732 µM	0.959 µM
Cc1ccc(NC(=O)/C=C/CN(C)C)cc1Nc1ncc(Cl)c(Nc2ccc3ccccc3c2)n1 [CCB145340]	0.117 µM	1.61 µM	2.22 µM	0.0287 µM	0.864 µM
Cc1cc(NC(=O)/C=C/CN(C)C)cc(Nc2ncc(Br)c(Nc3ccc4ccccc4c3)n2)c1 [CCB145342, (E)-N-((3-((5-bromo-4-((naphthalen-2-yl)amino))pyrimidin-2-yl)amino)-5-methylphenyl)-4-(dimethylamino)-2-butenamide]	0.127 µM	0.942 µM	1.88 µM	0.0442 µM	1.27 µM
Cc1cc(NC(=O)/C=C/CN(C)C)cc(Nc2ncc(Cl)c(Nc3ccc4ccccc4c3)n2)c1 [CCB145344, (E)-N-((3-((5-chloro-4-((naphthalen-2-yl)amino))pyrimidin-2-yl)amino)-5-methylphenyl)-4-(dimethylamino)-2-butenamide]	0.036 µM	0.775 µM	0.613 µM	0.0463 µM	0.925 µM
Cc1ccc(Nc2ncc(Cl)c(Nc3ccc4ccccc4c3)n2)cc1NC(=O)/C=C/CN(C)C [CCB145346, (E)-N-((5-((5-chloro-4-((naphthalen-2-yl)amino))pyrimidin-2-yl)amino)-2-methylphenyl)-4-(dimethylamino)-2-butenamide]	0.2 µM	1.04 µM	1.15 µM	0.0562 µM	0.598 µM

From patent US10059694B2, “2-aminopyrimidine compound and pharmaceutical composition and use thereof” (Shanghai Institute of Materia Medica, Chinese Academy of …, priority 2014, dated 2018)
